According to ChEMBL document CHEMBL1201862, “PubChem BioAssay data set” (2004):
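48-hour exposure; five concentrations; linearly interpolated endpoints. The concentration for 50% growth inhibition is given as GI50.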 The source made the active and inactive calls. No stated cut-off is given here; in the data, active = GI50 up to about 1.1 µM and inactive = higher.

Legend:
Assay in all cases: NCI anticancer screen, dose series, 48 h
A549 = test system: A549
CAKI-1 = test system: CAKI-1
COLO 205 = test system: COLO 205
EKVX = test system: EKVX
HOP-62 = test system: HOP-62
KM12 = test system: KM12
Malme-3M = test system: Malme-3M
NCI-H23 = test system: NCI-H23
NCI-H522 = test system: NCI-H522
OVCAR-3 = test system: OVCAR-3
RPMI-8226 = test system: RPMI-8226
SK-MEL-5 = test system: SK-MEL-5
SK-OV-3 = test system: SK-OV-3
SNB-75 = test system: SNB-75
UACC-62 = test system: UACC-62

Measured: GI50

Oc1cc2cc(-c3ccccc3)[nH]c2c2ccccc12
inactive: A549 30.1 µM | CAKI-1 18.5 µM | COLO 205 10.4 µM | EKVX > 48.9 µM | HOP-62 > 85.9 µM | KM12 27.4 µM | Malme-3M 19.9 µM | NCI-H23 15 µM | NCI-H522 15.3 µM | OVCAR-3 16.3 µM | RPMI-8226 16.6 µM | SK-MEL-5 14.1 µM | SK-OV-3 > 77.8 µM | SNB-75 33 µM | UACC-62 15.2 µM

COc1cc(/C=N\c2ccc(C(C)C)cc2)cc(OC)c1OC
inactive: A549 > 100 µM | CAKI-1 > 100 µM | COLO 205 > 73.6 µM | EKVX > 100 µM | HOP-62 > 100 µM | KM12 > 100 µM | Malme-3M > 100 µM | NCI-H23 > 100 µM | NCI-H522 > 59.7 µM | OVCAR-3 > 100 µM | RPMI-8226 > 42 µM | SK-MEL-5 > 78 µM | SK-OV-3 > 100 µM | SNB-75 98.4 µM | UACC-62 > 100 µM

CCOC(=O)C1=C(C)NC(=O)NC1c1ccc(OC)cc1OC (stereo not given)
inactive: A549 > 100 µM | CAKI-1 > 100 µM | COLO 205 > 100 µM | EKVX > 100 µM | HOP-62 > 100 µM | KM12 > 100 µM | Malme-3M > 100 µM | NCI-H23 > 100 µM | NCI-H522 > 100 µM | OVCAR-3 > 100 µM | RPMI-8226 79.1 µM | SK-MEL-5 > 100 µM | SK-OV-3 > 100 µM | SNB-75 > 100 µM | UACC-62 > 100 µM

COc1cc(NS(=O)(=O)c2ccc(C)cc2)c2nccnc2c1
inactive: A549 24 µM | CAKI-1 37.6 µM | COLO 205 27 µM | EKVX 39.8 µM | HOP-62 33.2 µM | KM12 32.6 µM | Malme-3M 37.2 µM | NCI-H23 34.4 µM | NCI-H522 20.7 µM | OVCAR-3 32.4 µM | RPMI-8226 25.5 µM | SK-MEL-5 23.7 µM | SK-OV-3 84.9 µM | SNB-75 24.3 µM | UACC-62 14.8 µM

CCOC(=O)C1=C(Nc2cccc3ccccc23)OCC1=O
inactive: A549 > 100 µM | CAKI-1 > 100 µM | COLO 205 > 100 µM | EKVX > 100 µM | HOP-62 > 100 µM | KM12 > 100 µM | Malme-3M > 100 µM | NCI-H23 > 100 µM | NCI-H522 > 100 µM | OVCAR-3 > 100 µM | RPMI-8226 > 100 µM | SK-MEL-5 > 100 µM | SK-OV-3 > 100 µM | SNB-75 > 100 µM | UACC-62 > 100 µM

N=C(N)N/N=C/c1c[nH]c2ccccc12
inactive: A549 > 100 µM | CAKI-1 > 100 µM | COLO 205 > 100 µM | EKVX > 100 µM | HOP-62 > 100 µM | KM12 > 100 µM | Malme-3M > 100 µM | NCI-H23 > 100 µM | NCI-H522 74.6 µM | OVCAR-3 > 100 µM | RPMI-8226 > 100 µM | SK-MEL-5 > 100 µM | SK-OV-3 > 100 µM | SNB-75 > 100 µM | UACC-62 > 100 µM

Nc1cccc2c1C(=O)c1cccc(N)c1C2=O
inactive: A549 > 100 µM | CAKI-1 > 100 µM | COLO 205 > 100 µM | EKVX > 100 µM | HOP-62 > 100 µM | KM12 > 100 µM | Malme-3M > 100 µM | NCI-H23 > 100 µM | NCI-H522 > 100 µM | OVCAR-3 > 100 µM | RPMI-8226 > 100 µM | SK-MEL-5 > 100 µM | SK-OV-3 > 100 µM | SNB-75 > 100 µM | UACC-62 > 100 µM
